In patent publication US20100204141A1, “USE OF BPP-B AS A THERAPEUTIC AGENT” (priority 2007, published 2010):
Square brackets hold non-standard residues; d marks the D form. Peptide text beside a SMILES is read from it. pGlu = O=C1CC[C@@H](C(=O)O)N1

Tested on: drug-resistant Mycobacterium tuberculosis
Details: 5 micrograms per ml

In the case of `CC[C@H](C)[C@H](NC(=O)[C@H](CCCCN)NC(=O)[C@@H]1CCCN1C(=O)[C@H](CCCNC(=N)N)NC(=O)[C@@H]1CCCN1C(=O)[C@@H]1CCCN1C(=O)[C@H](CC(C)C)NC(=O)CNC(=O)[C@@H]1CCC(=O)N1)C(=O)N1CCC[C@H]1C(=O)N1CCC[C@H]1C(=O)O` [Bradykinin potentiator B, Pyr-Gly-Leu-Pro-Pro-Arg-Pro-Lys-Ile-Pro-Pro-OH] ([pGlu]GLPPRPKIPP-OH), the “% inhibition” value is reported as 0.0%.
